The record followed here is ChEMBL document CHEMBL1141087, “Differential response of estrogen receptor subtypes to 1,3-diarylindene and 2,3-diarylindene ligands” (J Med Chem, 2005).

Test [1] concerns the target T1, Estrogen receptor (Homo sapiens, UniProt P03372).
T1 sequence (P03372 whole entry): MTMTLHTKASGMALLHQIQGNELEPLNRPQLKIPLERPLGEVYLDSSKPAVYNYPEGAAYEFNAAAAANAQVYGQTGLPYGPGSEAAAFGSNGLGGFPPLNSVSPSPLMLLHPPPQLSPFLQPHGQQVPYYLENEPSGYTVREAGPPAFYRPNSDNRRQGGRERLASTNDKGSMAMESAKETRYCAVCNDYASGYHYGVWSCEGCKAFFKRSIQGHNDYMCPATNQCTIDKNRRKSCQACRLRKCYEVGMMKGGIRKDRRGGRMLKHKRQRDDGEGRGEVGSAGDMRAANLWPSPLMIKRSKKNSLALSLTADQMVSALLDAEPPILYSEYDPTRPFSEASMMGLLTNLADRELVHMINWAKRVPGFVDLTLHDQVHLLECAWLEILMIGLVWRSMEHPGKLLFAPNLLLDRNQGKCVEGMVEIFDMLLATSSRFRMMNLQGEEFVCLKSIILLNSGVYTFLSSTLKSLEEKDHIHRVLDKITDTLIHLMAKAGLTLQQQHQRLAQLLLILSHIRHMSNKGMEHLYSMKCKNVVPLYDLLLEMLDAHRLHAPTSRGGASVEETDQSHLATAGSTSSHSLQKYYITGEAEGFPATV
Description: Transcriptional activation of estrogen receptor alpha in U2OS cell using estrogen-regulated luciferase reporter gene plasmid upon incubation for 20-30 mins at RT

Test [2] has as its target T2, Estrogen receptor beta (Homo sapiens, UniProt Q92731).
The target of test [3] is T1, Estrogen receptor. The source holds these as a separate data set.
In test [4] the target is T2, Estrogen receptor beta. This is another data set of the same source.
Description: Transcriptional activation of estrogen receptor beta in U2OS cell using estrogen-regulated luciferase reporter gene plasmid upon incubation for 20-30 mins at RT

T2 sequence (Q92731 whole entry): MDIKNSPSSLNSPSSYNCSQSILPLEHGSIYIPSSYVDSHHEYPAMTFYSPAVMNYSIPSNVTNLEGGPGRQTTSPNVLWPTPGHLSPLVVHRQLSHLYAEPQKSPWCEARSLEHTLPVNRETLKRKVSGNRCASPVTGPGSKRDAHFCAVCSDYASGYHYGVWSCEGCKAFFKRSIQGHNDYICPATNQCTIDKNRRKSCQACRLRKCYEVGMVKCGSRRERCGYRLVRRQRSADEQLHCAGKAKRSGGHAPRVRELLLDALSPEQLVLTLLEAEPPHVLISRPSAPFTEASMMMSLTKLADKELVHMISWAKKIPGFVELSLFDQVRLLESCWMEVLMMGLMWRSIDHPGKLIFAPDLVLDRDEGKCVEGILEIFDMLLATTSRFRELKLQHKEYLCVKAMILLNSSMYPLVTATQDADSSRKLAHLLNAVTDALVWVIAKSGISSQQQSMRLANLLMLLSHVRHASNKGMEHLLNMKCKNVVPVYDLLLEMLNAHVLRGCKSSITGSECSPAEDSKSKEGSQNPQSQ

One may read the EC50 as the midpoint of the concentration-response curve. Read a low EC50 as greater potency. With `CCC1=C(c2ccc(O)cc2)C(C(=O)Nc2ccc(O)cc2)c2cc(O)ccc21` (stereo not drawn), a half-maximal response on Estrogen receptor [1] (EC50) required 427 nM.
Broadly, the Ki is a measure of affinity in units of concentration, obtained from inhibition or displacement. `CC(=O)c1ccc(C2=C(c3ccc(O)cc3)Cc3cc(O)ccc32)cc1`: the results for the Ki on Estrogen receptor beta [2] and at Estrogen receptor [3] were 3.8 nM and 7.3 nM, respectively.
The like results for `NC(=O)c1ccc(C2=C(c3ccc(O)cc3)Cc3cc(O)ccc32)cc1` were, in that order, 0.46 nM and 4.2 nM.
On to `CCC1=C(c2ccc(O)cc2)C(CC)c2cc(O)ccc21` (stereo not drawn), for which the EC50 on Estrogen receptor [1] came to 0.059 nM; on Estrogen receptor beta [4] it was 0.3 nM.
For `Oc1ccc(C2=C(c3ccccc3)c3ccc(O)cc3C2)cc1`, the concentration for a half-maximal effect (EC50) on Estrogen receptor [1] came out at 4.3 nM; on Estrogen receptor beta [4] it was 54 nM.
The like results for `CCC1=C(c2ccc(O)cc2)C(C(=O)Nc2ccc(OCCN(C)C)cc2)c2cc(O)ccc21` (stereo not drawn) were, in that order, 152 nM and 512 nM.
`Oc1ccc(C2=C(c3ccc(C(F)(F)F)cc3)c3ccc(O)cc3C2)cc1`: at Estrogen receptor [1], the EC50 worked out at 15 nM. The inhibition constant (Ki) at Estrogen receptor beta [2] is 0.91 nM; on Estrogen receptor [3], 2.1 nM.
In turn, `CCC1=C(c2ccc(O)cc2)C(C(=O)Nc2ccc(OCCN3CCCCC3)cc2)c2cc(O)ccc21` (stereo not drawn) gave a half-maximal effective concentration (EC50) at Estrogen receptor [1] of 100 nM. The Ki stood at 147 nM on Estrogen receptor beta [2] and 184 nM at Estrogen receptor [3].
With `Oc1ccc(C2=C(c3ccc(F)cc3)c3ccc(O)cc3C2)cc1`, the figures for the EC50 at Estrogen receptor [1] and on Estrogen receptor beta [4] were 3.9 nM and 10 nM, respectively. The compound further had a Ki on Estrogen receptor beta [2] of 2.8 nM.
Regarding `Oc1ccc(C2=C(c3ccc(CBr)cc3)c3ccc(O)cc3C2)cc1`, on Estrogen receptor [1], a half-maximal response (EC50) required 109 nM. The inhibition constant (Ki) on Estrogen receptor beta [2] amounted to 15 nM; on Estrogen receptor [3], 59 nM.
Regarding `Cc1ccc(C2=C(c3ccc(O)cc3)Cc3cc(O)ccc32)cc1`, the EC50 at Estrogen receptor [1] stood at 17 nM. The compound further yielded an inhibition constant (Ki) at Estrogen receptor beta [2] of 1.3 nM.
On Estrogen receptor [1], `Oc1ccc(C2=C(c3ccc(Cl)cc3)c3ccc(O)cc3C2)cc1` gave an EC50 of 17 nM. Moreover, the figures for the inhibitory constant (Ki) on Estrogen receptor beta [2] and at Estrogen receptor [3] were 0.49 nM and 24 nM, respectively.
At Estrogen receptor [1], `Nc1ccc(C2=C(c3ccc(O)cc3)Cc3cc(O)ccc32)cc1` displayed an EC50 of 6.7 nM. Further, the Ki worked out at 2.2 nM on Estrogen receptor beta [2] and 0.67 nM at Estrogen receptor [3].
With `CCC1=C(c2ccc(O)cc2)C(C(=O)O)c2cc(O)ccc21` (stereo not drawn), the 50% effective concentration (EC50) at Estrogen receptor [1] was found to be 158 nM; at Estrogen receptor beta [4], 52 nM.
For the compound `CCC1=C(c2ccc(O)cc2)Cc2cc(O)ccc21`, the EC50 is 0.31 nM on Estrogen receptor [1] and 0.3 nM on Estrogen receptor beta [4].
Turning to `O=C(O)c1ccc(C2=C(c3ccc(O)cc3)Cc3cc(O)ccc32)cc1`, the Ki at Estrogen receptor beta [2] stood at 421 nM.
`Oc1ccc(C2=C(c3ccc(O)cc3)c3ccc(O)cc3C2)cc1`: a half-maximal response at Estrogen receptor [1] (EC50) required 7 nM. Further, the values for the Ki at Estrogen receptor beta [2] and at Estrogen receptor [3] were 1.3 nM and 8.5 nM, respectively.
Regarding `Oc1ccc(C2=C(Cc3ccccc3)c3ccc(O)cc3C2)cc1`, the EC50 on Estrogen receptor [1] is 14 nM; at Estrogen receptor beta [4] it was 37 nM.
`Oc1ccc(C2=C(c3ccc(OCCN4CCCCC4)cc3)c3ccc(O)cc3C2)cc1`: the Ki was 0.19 nM at Estrogen receptor beta [2] and 1.7 nM on Estrogen receptor [3].
